Here are results for 17 molecules from US20100125059A1, “1-BIARYLAZETIDINONE DERIVATIVE” (Teijin Pharma Limited, priority 2007, published 2010).

Where two headings read alike, the source gives them in different places.

The assay deals with hamsters fed a high cholesterol diet. Briefly: Measurement of lipid lowering effect in hamsters fed a high cholesterol diet. The class given is in vivo, Male Golden Syrian hamsters. As to conditions: Mesocricetus auratus, po, 168 h, gavage once daily, 7 days. On the procedure:
Male Golden Syrian hamsters are divided into groups each consisting of 6 animals and fed a controlled high cholesterol diet (CE-2 containing 0.5% cholesterol; CLEA Japan, Inc.) for 28 days at most. From the start of feeding of the high cholesterol diet, the test compounds are administered by gavage once daily. For the administration, 0.2 mL of corn oil alone per 100 g (control group) or a solution (or suspension) of the test compound in corn oil at a dose of 0.01 to 10 mg/kg was given. At the same time, a group fed with a normal diet during the same study period is handled as a normal group. 4 hours after the last administration, whole blood is collected from the abdominal aorta under light anesthesia with ether and serum is separated from the blood. Further, livers are harvested, wet liver weights are measured, and part (about 0.5 g) of the harvested livers are extracted and weighed. 2-propanol in an amount 4 times the weight of the extracted livers are added, the resulted mixtures are homogenized, and the centrifuged supernatant are recovered and used as liver-derived samples.
Serum and liver TC concentrations are determined by an enzyme method using L-type Wako CHO•H (Wako Pure Chemical Industries Ltd.) or Cholestest CHO (Daiichi Pure Chemicals Co., Ltd.). Serum TG concentrations are determined by an enzyme method using L-type Wako TG•H (Wako Pure Chemical Industries Ltd.) or Autosera S TG-N (Daiichi Pure Chemicals Co., Ltd.) and a free glycerine elimination method. LDL-C concentrations are determined by a direct method using L-type Wako LDL-C•M (Wako Pure Chemical Industries Ltd.) or Cholestest LDL (Daiichi Pure Chemicals Co., Ltd.). Human serum was commonly used as a sample for the calibration curve for determinations of serum and liver TC concentrations, serum TG concentration, and serum LDL-C concentration. The effect of the test compound is shown by a suppression rate (%) of an increase in serum TC concentration due to feeding of the high cholesterol diet, a serum TG lowering rate (%), a suppression rate (%) of an increase in serum LDL-C concentration due to feeding of the high cholesterol diet, and a suppression rate (%) of an increase in liver TC concentration due to feeding of the high cholesterol diet calculated in accordance with the following equations.
In the Equation 2, A is the control group, B is the test compound group, and C is the normal group.
In the Equation 3, A is the control group, B is the test compound group, and C is the normal group.
In the Equation 4, A is the control group, B is the test compound group, and C is the normal group.
In the Equation 5, A is the control group, and B is the test compound group.
The following results were obtained from the study by this method on the effects of lowering serum TC, LDL-C, and TG, and liver TC in the hamsters fed with a high cholesterol diet which were given the test compounds for 7 days.
The compounds in which pyridyl of compound of example 51 and 55 was exchanged for phenyl, were used as comparative compound 1 and 2, respectively. In the same method as Example 112, the suppression rate (%) of an increase in serum TC concentration of comparative compound 1 and 2 were calculated.

Where [1] appears, read: read-out: serum LDL-C lowering effect (suppression rate of an increase in serum LDL-C concentration).
Where [2] appears, read: read-out: serum TC lowering effect (suppression rate of an increase in serum TC concentration).
Where [3] appears, read: read-out: liver TC lowering effect (suppression rate of an increase in liver TC concentration).
Setting [4] is: read-out: serum TG lowering effect (serum TG lowering rate).

`N#Cc1cncc(-c2ccc(N3C(=O)[C@H](SC[C@H](O)c4ccc(Cl)cc4)[C@H]3c3ccc(O)cc3O)cc2)c1` [Example 65, 5-(4-{(3R,4R)-3-[(2R)-2-(4-chlorophenyl)-2-hydroxyethylthio]-4-(2,4-dihydroxyphenyl)-2-oxoazetidinyl}phenyl)pyridine-3-carbonitrile]: the inhibition in vivo at 0.1 mg/kg runs as follows: under setting [1], ≥ 50%; under setting [2], ≥ 50%.

Turning to `O=C1[C@H](SC[C@H](O)c2ccc(F)cc2)[C@@H](c2ccc(O)cc2O)N1c1ccc(-c2cccnc2)cc1` [Example 2, (3R,4R)-3-[(2R)-2-(4-fluorophenyl)-2-hydroxyethylthio]-4-(2,4-dihydroxyphenyl)-1-[4-(pyridin-3-yl)phenyl]azetidin-2-one], the inhibition in vivo at 0.01 mg/kg under setting [3] is ≥ 30% and the inhibition in vivo at 0.01 mg/kg under setting [2] is ≥ 30%.

Take `O=C1[C@H](SC[C@H](O)c2ccc(Cl)cc2O)[C@@H](c2ccc(O)cc2)N1c1ccc(-c2cccnc2)cc1` [Example 89, (3R,4R)-3-[(2R)-2-(4-chloro-2-hydroxyphenyl)-2-hydroxyethylthio]-4-(4-hydroxyphenyl)-1-[4-(pyridin-3-yl)phenyl]azetidin-2-one]: the inhibition in vivo at 0.1 mg/kg is ≥ 50% under setting [1] and ≥ 50% under setting [2].

On to `Cc1ccc(-c2ccc(N3C(=O)[C@H](SC[C@H](O)c4ccc(F)cc4)[C@H]3c3ccc(O)cc3O)cc2)cn1` [Example 95, (3R,4R)-3-[(2R)-2-(4-fluorophenyl)-2-hydroxyethylthio]-4-(2,4-dihydroxyphenyl)-1-[4-(6-methylpyridin-3-yl)phenyl]azetidin-2-one], for which the inhibition in vivo at 0.01 mg/kg under setting [1] was ≥ 30% and the inhibition in vivo at 0.01 mg/kg under setting [2] is ≥ 30%.

As to `COc1ccncc1-c1ccc(N2C(=O)[C@H](SC[C@H](O)c3ccc(F)cc3)[C@H]2c2ccc(O)cc2O)cc1` [Example 64, (3R,4R)-3-[(2R)-2-(4-fluorophenyl)-2-hydroxyethylthio]-4-(2,4-dihydroxyphenyl)-1-[4-(4-methoxypyridin-3-yl)phenyl]azetidin-2-one], the inhibition in vivo at 0.1 mg/kg under setting [1] is ≥ 50% and the inhibition in vivo at 0.1 mg/kg under setting [2] was ≥ 50%.

For the molecule `O=C1[C@H](SC[C@H](O)c2ccc(F)cc2)[C@@H](c2ccc(O)cc2O)N1c1ccc(-c2cncc(Cl)c2)cc1` [Example 92, (3R,4R)-3-[(2R)-2-(4-fluorophenyl)-2-hydroxyethylthio]-4-(2,4-dihydroxyphenyl)-1-[4-(5-chloropyridin-3-yl)phenyl]azetidin-2-one], the inhibition in vivo at 0.01 mg/kg reads like this: under setting [1], ≥ 30%; under setting [2], ≥ 30%. The inhibition in vivo at 0.1 mg/kg under setting [4] is ≥ 20%.

Take `Cc1cc(O)ccc1[C@@H]1[C@@H](SC[C@H](O)c2ccc(F)cc2)C(=O)N1c1ccc(-c2cncnc2)cc1` [Example 100, (3R,4R)-3-[(2R)-2-(4-fluorophenyl)-2-hydroxyethylthio]-4-(4-hydroxy-2-methylphenyl)-1-[4-(pyrimidin-5-yl)phenyl]azetidin-2-one]: the inhibition in vivo at 0.1 mg/kg is, setting by setting: under setting [1], ≥ 50%; under setting [2], ≥ 50%; under setting [4], ≥ 20%.

In the case of `N#Cc1cncc(-c2ccc(N3C(=O)[C@H](SC[C@H](O)c4ccc(F)cc4)[C@H]3c3ccc(O)cc3)cc2)c1` [Example 18, 5-(4-{(3R,4R)-3-[(2R)-2-(4-fluorophenyl)-2-hydroxyethylthio]-4-(4-hydroxyphenyl)-2-oxoazetidinyl}phenyl)pyridine-3-carbonitrile], under setting [2], the inhibition in vivo at 0.01 mg/kg is ≥ 30%. Moreover, the inhibition in vivo at 0.1 mg/kg under setting [1] is ≥ 50% and the inhibition in vivo at 0.1 mg/kg under setting [4] is ≥ 20%.

In the case of `O=Cc1cncc(-c2ccc(N3C(=O)[C@H](SC[C@H](O)c4ccc(F)cc4)[C@H]3c3ccc(O)cc3)cc2)c1` [Example 71, 5-(4-{(3R,4R)-3-[(2R)-2-(4-fluorophenyl)-2-hydroxyethylthio]-4-(4-hydroxyphenyl)-2-oxoazetidinyl}phenyl)pyridine-3-carbaldehyde], the inhibition in vivo at 0.1 mg/kg under setting [1] is ≥ 50% and the inhibition in vivo at 0.1 mg/kg under setting [2] was ≥ 50%.

In the case of `O=C1[C@H](SC[C@H](O)c2ccc(F)cc2)[C@@H](c2ccc(O)cc2)N1c1ccc(-c2cncnc2)cc1` [Example 10, (3R,4R)-3-[(2R)-2-(4-fluorophenyl)-2-hydroxyethylthio]-4-(4-hydroxyphenyl)-1-[4-(pyrimidin-5-yl)phenyl]azetidin-2-one], the inhibition in vivo at 0.1 mg/kg runs as follows: under setting [2], ≥ 50%; under setting [4], ≥ 20%.

As to `Cc1cc(Cl)ccc1[C@@H](O)CS[C@H]1C(=O)N(c2ccc(-c3cccnc3)cc2)[C@@H]1c1ccc(O)cc1` [Example 102, (3R,4R)-3-[(2R)-2-(4-chloro-2-methylphenyl)-2-hydroxyethylthio]-4-(4-hydroxyphenyl)-1-[4-(pyridin-3-yl)phenyl]azetidin-2-one], the inhibition in vivo at 0.1 mg/kg is ≥ 50% under setting [3], ≥ 50% under setting [1] and ≥ 50% under setting [2].

`N#Cc1ccc(-c2ccc(N3C(=O)[C@H](SC[C@H](O)c4ccc(Cl)cc4)[C@H]3c3ccc(O)cc3)cc2)cn1` [Example 60, 5-(4-{(3R,4R)-3-[(2R)-2-(4-chlorophenyl)-2-hydroxyethylthio]-4-(4-hydroxyphenyl)-2-oxoazetidinyl}phenyl)pyridine-2-carbonitrile]: the inhibition in vivo at 0.1 mg/kg under setting [1] was ≥ 50% and the inhibition in vivo at 0.1 mg/kg under setting [4] is ≥ 20%.

Regarding `Cc1ccc(-c2ccc(N3C(=O)[C@H](SC[C@H](O)c4ccc(Cl)cc4)[C@H]3c3ccc(O)cc3O)cc2)cn1` [Example 98, (3R,4R)-3-[(2R)-2-(4-chlorophenyl)-2-hydroxyethylthio]-4-(2,4-dihydroxyphenyl)-1-[4-(6-methylpyridin-3-yl)phenyl]azetidin-2-one], the inhibition in vivo at 0.01 mg/kg under setting [1] is ≥ 30%.

With `O=C1[C@H](SC[C@H](O)c2ccc3c(c2)OCO3)[C@@H](c2ccc(O)cc2)N1c1ccc(-c2cccnc2)cc1` [Example 33, (3R,4R)-3-[(2R)-2-(2H-benzo[3,4-d]1,3-dioxolen-5-yl)-2-hydroxyethylthio]-4-(4-hydroxyphenyl)-1-[4-(pyridin-3-yl)phenyl]azetidin-2-one], the inhibition in vivo at 0.1 mg/kg runs as follows: under setting [1], ≥ 50%; under setting [2], ≥ 50%.

As to `N#Cc1ncc(-c2ccc(N3C(=O)[C@H](SC[C@H](O)c4ccc(F)cc4)[C@H]3c3ccc(O)cc3)cc2)cn1` [Example 103, 5-(4-{(3R,4R)-3-[(2R)-2-(4-fluorophenyl)-2-hydroxyethylthio]-4-(4-hydroxyphenyl)-2-oxoazetidinyl}phenyl)pyrimidine-2-carbonitrile], under setting [4], the inhibition in vivo at 0.1 mg/kg is ≥ 20%.

Consider `O=C(CS[C@H]1C(=O)N(c2ccc(-c3cccnc3)cc2)[C@@H]1c1ccc(O)cc1)c1ccc(F)cc1` [Example 27, (3R,4R)-3-[2-(4-fluorophenyl)-2-oxoethylthio]-4-(4-hydroxyphenyl)-1-[4-(pyridin-3-yl)phenyl]azetidin-2-one], for which the inhibition in vivo at 0.1 mg/kg runs as follows: under setting [1], ≥ 50%; under setting [2], ≥ 50%.

As for `O=C1[C@H](SC[C@H](O)c2ccc(F)cc2)[C@@H](c2ccc(O)c([N+](=O)[O-])c2)N1c1ccc(-c2cccnc2)cc1` [Example 42, (3R,4R)-3-[(2R)-2-(4-fluorophenyl)-2-hydroxyethylthio]-4-(4-hydroxy-3-nitrophenyl)-1-[4-(pyridin-3-yl)phenyl]azetidin-2-one], under setting [1], the inhibition in vivo at 0.1 mg/kg is ≥ 50%.
